Experimental data reported in paper PMC12075686, “Structural basis of phosphorylation-independent nuclear import of CIRBP by TNPO3” (Nature Communications, 2025).
Positions count from the first letter of the chain named.

Columns and labels:
TNPO3 WT = target: T1, TNPO3 WT (Homo sapiens, UniProt Q9Y5L0); experiment: ITC, ligand titrated into TNPO3 WT; type: binding; settings: ITC, TNPO3 WT
T1 sequence (Q9Y5L0 1-923): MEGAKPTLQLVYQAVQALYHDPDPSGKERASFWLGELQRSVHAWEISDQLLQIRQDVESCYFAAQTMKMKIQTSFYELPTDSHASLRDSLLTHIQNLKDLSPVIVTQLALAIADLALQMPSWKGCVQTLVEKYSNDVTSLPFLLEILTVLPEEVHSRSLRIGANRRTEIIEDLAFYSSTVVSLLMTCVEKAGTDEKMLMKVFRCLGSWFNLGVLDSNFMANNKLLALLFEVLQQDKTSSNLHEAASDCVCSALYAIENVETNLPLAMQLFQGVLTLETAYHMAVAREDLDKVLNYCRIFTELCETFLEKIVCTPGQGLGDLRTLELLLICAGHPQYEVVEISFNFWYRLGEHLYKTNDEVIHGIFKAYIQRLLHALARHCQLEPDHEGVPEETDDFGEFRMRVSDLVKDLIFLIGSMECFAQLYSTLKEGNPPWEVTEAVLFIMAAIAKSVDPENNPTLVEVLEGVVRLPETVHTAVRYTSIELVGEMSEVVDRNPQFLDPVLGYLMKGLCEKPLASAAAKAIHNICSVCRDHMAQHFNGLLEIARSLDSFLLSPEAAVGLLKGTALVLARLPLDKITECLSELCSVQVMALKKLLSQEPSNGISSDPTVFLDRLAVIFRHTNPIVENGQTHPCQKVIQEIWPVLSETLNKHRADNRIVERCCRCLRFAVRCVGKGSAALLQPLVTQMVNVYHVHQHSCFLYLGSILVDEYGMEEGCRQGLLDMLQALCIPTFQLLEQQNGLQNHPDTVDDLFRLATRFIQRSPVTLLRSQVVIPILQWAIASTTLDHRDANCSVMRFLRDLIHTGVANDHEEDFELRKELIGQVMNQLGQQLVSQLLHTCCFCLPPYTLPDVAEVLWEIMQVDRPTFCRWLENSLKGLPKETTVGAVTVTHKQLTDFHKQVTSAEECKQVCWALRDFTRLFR
Protocol: (§1) ITC has been performed by a Malvern Microcal VP-ITC at 25 °C for all binding studies. Samples have been dissolved in Tris buffer containing 50 mM Tris–HCl, 150 mM NaCl, 2 mM TCEP, and 0.04% NaN3 at pH 7.5. Binding studies of CIRBP^RSY and SRSF1^RS were performed with TNPO3 WT, and studies of CIRBP (157–172) and its mutants/phosphorylations were performed with TNPO3 C511A, respectively. Injection has been carried out by a syringe containing ligand solution of 100 μM, which adds ligand step-wise into the cell containing 10 μM TNPO3 during 28 injections of 10 μL each. Data analysis, curve fitting, and calculation of Kd, ΔH, and ΔS have been carried out using Origin-based 7.0 software provided by the manufacturer. All replicated ITC data are shown in Supplementary Fig. 6 and Supplementary Table 1.

TNPO3 C511A = target: T2, TNPO3 C511A (Homo sapiens, UniProt Q9Y5L0, C511A); experiment: ITC, ligand titrated into TNPO3 C511A; type: binding; settings: TNPO3 C511A
T2 construct: full-length (FL) WT human TNPO3 were generated by synthesizing codon-optimized DNA fragments; His6 (N, cleaved yes); protein A (N, cleaved yes); made in house; host or cells: Escherichia coli BL21-(DE3) Star
T2 sequence (Q9Y5L0 1-923 C511A): T1 sequence (Q9Y5L0 1-923) with C511A
Protocol: as §1

TNPO3 = experiment: NMR binding studies with TNPO3 (1H-15N HSQC, 1H-13C HMQC, 1H 1D, STD); set-up: species or system human
Protocol: All NMR studies for TNPO3 were carried out using the wild type protein. Protein samples for ^1H-^13C HMQC were prepared at a concentration of 100 μM and equilibrated in a buffer containing 50 mM Tris–HCl, pH 6.7, 150 mM NaCl, 2 mM TCEP and 10% D2O. Spectral acquisitions for TNPO3 free and in complex with CIRBP^RSY and SRSF1^RS, respectively were performed at 298 K on a 700 MHz Bruker Avance III NMR spectrometer equipped with a TCI triple-resonance cryoprobe. The pulse program was sfhmqcf2gpph and the spectra were recorded with 32 scans, interscan delay of 1 s, 160 points in F1, 1024 points in F2, 5283.879 Hz spectral width in F1, and 11,160.714 Hz spectral width in F2. Spectra were processed using Topspin 4.1.3.
Spectral acquisitions for TNPO3 free and in complex with mCIRBP^RSY, pCIRBP^RSY, and pSRSF1^RS, respectively, were performed at 298 K on a 600 MHz Bruker Avance Neo NMR spectrometer equipped with a TXI 600S3 probehead. The pulse program was hmqcgpphwg and the spectra were recorded with 64 scans, interscan delay of 1 s, 200 points in F1, 1024 points in F2, 4545.455 Hz spectral width in F1, and 7812.500 Hz spectral width in F2. Spectra were processed using Topspin 4.3.0.
For ^1H-^15N HSQC spectra, protein samples were equilibrated in a buffer containing 50 mM Tris–HCl, pH 6.7, 150 mM NaCl, 2 mM TCEP, 0.04% NaN3, and 10% D2O (with additional 20 mM MgCl2 for CIRBP phosphorylation kinetics). Data were recorded at 298 K on the 600 MHz Bruker Avance Neo NMR spectrometer equipped with a TXI 600S3 probehead. The pulse program was hsqcetfpf3gpsi and was recorded with 8-16 scans, interscan delay of 1 s, 128 points in F1, 1024 points in F2, 1949.318 Hz spectral width in F1, and 9615.385 Hz spectral width in F2. Spectra were processed using Topspin 4.3.0.

transportin-1 (TNPO1) = settings: cited from earlier work
Description: CIRBP, a nuclear protein known for its role in regulating mRNA stability and DNA repair, translocates from the nucleus to the cytoplasm under stress condition, forming stress granules[31],[32]. It is a typical RNA-binding pro ... || page 4: REVIEWER COMMENTS Comments are highlighted with a green background Reviewer #1 (Remarks to the Author) TNPO3 is an important karyopherin involved in some human pathologies and HIV-1 infection. Its best characterized biological function is in nuclear import of SR and SR-like repeat containing proteins, such as SFRS1 and CPSF6. […] Intriguingly, TNPO3 engages these alternative NLSs via the same region, which it ...

ΔS (TNPO3 WT; replicate 1 (rep1)): –101 cal/mol/deg
ΔS (TNPO3 WT; replicate 2 (rep2)): –192 cal/mol/deg
ΔS (TNPO3 C511A; rep1, reference for alanine mutation): –124 cal/mol/deg
ΔS (TNPO3 C511A; rep2, reference for alanine mutation): –242 cal/mol/deg
Substance: H-GSRDYYSSRSQSGGYSDRSSGGSYRDSYDSYATHNE-OH [CIRBP^RSY]
change of peptide 1H 1D NMR signals with sub-stoichiometric TNPO3 (TNPO3; 100 µM RSY regions and 10 µM TNPO3 (peer review reply)): slight decrease of peptide signal intensity
chemical shift perturbations of TNPO3 methyl groups upon ligand addition (1H,13C HMQC) (TNPO3; 100 µM [IM-methyl 13C] labeled TNPO3, one stoichiometric equivalent of ligand, 298 K, pH 6.7): led to CSPs of several TNPO3 ^1H,^13C cross-peaks
fold lower binding affinity for TNPO1 than for TNPO3 (transportin-1 (TNPO1)): approximately 70
